# From ChEMBL document CHEMBL1153685, “Design, synthesis, and evaluation of orally active fibrinogen inhibitors” (Bioorg Med Chem Lett, 1997)
# pIC50: −log10 of the molar value.
# Legend:
# Format in all cases: functional
# Homo sapiens = organism: Homo sapiens; test: The compound was tested in vitro for its anti-platelet activity against human platelets in presence of ADP
# Rattus norvegicus [1] = organism: Rattus norvegicus; test: The compound was tested for its stability in intestinal juice of rats after 0 h
# Rattus norvegicus [2] = organism: Rattus norvegicus; test: The compound was tested for its stability in intestinal juice of rats after 5 h
# Rattus norvegicus [3] = organism: Rattus norvegicus; test: The compound was tested for its stability in intestinal juice of rats after 2 h
# Canis familiaris [4] = test: Tested ex vivo for its inhibitory activity at 2 h against dogs after oral administration of 32 mg/Kg dose to evaluate bioavailability; settings: Canis lupus familiaris
# Canis familiaris [5] = test: Tested ex vivo for its inhibitory activity at 1 hr against dogs after oral administration of 3.2 mg/Kg dose to evaluate bioavailability; settings: Canis lupus familiaris
# Rattus norvegicus [6] = test: Tested ex vivo for its inhibitory activity at 1 hr against rats after oral administration of 20 mg/Kg dose to evaluate bioavailability
# Rattus norvegicus [7] = organism: Rattus norvegicus; test: Tested for its stability in intestinal juice of rats after 2 h
# Cavia porcellus [8] = test: Tested ex vivo for its inhibitory activity at 3 hr against guinea pig after oral administration of 1 mg/Kg dose to evaluate bioavailability
# Canis familiaris [9] = test: Tested ex vivo for its inhibitory activity at 1 hr against dogs after oral administration of 32 mg/Kg dose to evaluate bioavailability; settings: Canis lupus familiaris
# Canis familiaris [10] = test: Tested ex vivo for its inhibitory activity at 2 hr against dogs after oral administration of 3.2 mg/Kg dose to evaluate bioavailability; settings: Canis lupus familiaris
# Rattus norvegicus [11] = organism: Rattus norvegicus; test: Tested for its stability in intestinal juice of rats after 0 h
# Canis familiaris [12] = test: Tested ex vivo for its inhibitory activity at 3 hr against dogs after oral administration of 3.2 mg/Kg dose to evaluate bioavailability; settings: Canis lupus familiaris
# Canis familiaris [13] = test: Tested ex vivo for its inhibitory activity at 3 hr against dogs after oral administration of 32 mg/Kg dose to evaluate bioavailability; settings: Canis lupus familiaris
# Rattus norvegicus [14] = organism: Rattus norvegicus; test: Tested for its stability in intestinal juice of rats after 5 h
# Rattus norvegicus [15] = test: Tested ex vivo for its inhibitory activity at 1 hr against rats after oral administration of 10 mg/Kg dose to evaluate bioavailability
# Cavia porcellus [16] = test: Tested ex vivo for its inhibitory activity at 3 hr against guinea pig after oral administration of 3.2 mg/Kg dose to evaluate bioavailability
# Canis familiaris [17] = organism: Canis familiaris; test: The compound was tested in vitro for its anti-platelet activity against dog platelets in presence of ADP; settings: Canis lupus familiaris
# Cavia porcellus [18] = test: Tested ex vivo for its inhibitory activity at 6 hr against guinea pig after oral administration of 3.2 mg/Kg dose to evaluate bioavailability
# Rattus norvegicus [19] = test: Tested ex vivo for its inhibitory activity at 0.5 hr against rats after oral administration of 10 mg/Kg dose to evaluate bioavailability
# Cavia porcellus [20] = test: Tested ex vivo for its inhibitory activity at 1 hr against guinea pig after oral administration of 3.2 mg/Kg dose to evaluate bioavailability
# Rattus norvegicus [21] = test: Tested ex vivo for its inhibitory activity at 2 hr against rats after oral administration of 10 mg/Kg dose to evaluate bioavailability
# Rattus norvegicus [22] = test: Tested ex vivo for its inhibitory activity at 2 hr against rats after oral administration of 20 mg/Kg dose to evaluate bioavailability
# Rattus norvegicus [23] = organism: Rattus norvegicus; test: The compound was tested for its stability in intestinal juice of rats after 7 h
# Rattus norvegicus [24] = test: Tested ex vivo for its inhibitory activity at 0.5 hr against rats after oral administration of 20 mg/Kg dose to evaluate bioavailability
# Cavia porcellus [25] = test: Tested ex vivo for its inhibitory activity at 1 hr against guinea pig after oral administration of 0.32 mg/Kg dose to evaluate bioavailability
# Cavia porcellus [26] = test: Tested ex vivo for its inhibitory activity at 1 hr against guinea pig after oral administration of 1 mg/Kg dose to evaluate bioavailability
# [27] = The ratio of anti-platelet activity against dog platelets to that of human platelets was determined
# Rattus norvegicus [28] = test: Tested ex vivo for its inhibitory activity at 0.5 hr against rats after oral administration of 3.2 mg/Kg dose to evaluate bioavailability
# Canis familiaris [29] = test: Tested ex vivo for its inhibitory activity at 3 hr against dogs after oral administration of 10 mg/Kg dose to evaluate bioavailability; settings: Canis lupus familiaris
# Canis familiaris [30] = test: Tested ex vivo for its inhibitory activity at 1 hr against dogs after oral administration of 10 mg/Kg dose to evaluate bioavailability; settings: Canis lupus familiaris
# Rattus norvegicus [31] = test: Tested ex vivo for its inhibitory activity at 2 h against rats after oral administration of 3.2 mg/Kg dose to evaluate bioavailability
# Canis familiaris [32] = test: Tested ex vivo for its inhibitory activity at 6 hr against dogs after oral administration of 3.2 mg/Kg dose to evaluate bioavailability; settings: Canis lupus familiaris
# Canis familiaris [33] = test: Tested ex vivo for its inhibitory activity at 6 hr against dogs after oral administration of 10 mg/Kg dose to evaluate bioavailability; settings: Canis lupus familiaris
# Rattus norvegicus [34] = test: Tested ex vivo for its inhibitory activity at 1 h against rats after oral administration of 3.2 mg/Kg dose to evaluate bioavailability
# Cavia porcellus [35] = test: Tested ex vivo for its inhibitory activity at 2 hr against guinea pig after oral administration of 1 mg/Kg dose to evaluate bioavailability
# Cavia porcellus [36] = test: Tested ex vivo for its inhibitory activity at 2 hr against guinea pig after oral administration of 0.32 mg/Kg dose to evaluate bioavailability
# Cavia porcellus [37] = test: Tested ex vivo for its inhibitory activity at 1 hr against guinea pig after oral administration of 0.1 mg/Kg dose to evaluate bioavailability
# Canis familiaris [38] = test: Tested ex vivo for its inhibitory activity at 8 hr against dogs after oral administration of 3.2 mg/Kg dose to evaluate bioavailability; settings: Canis lupus familiaris
# Canis familiaris [39] = test: Tested ex vivo for its inhibitory activity at 1 hr against dogs after oral administration of 1 mg/Kg dose to evaluate bioavailability; settings: Canis lupus familiaris
# Canis familiaris [40] = test: Tested ex vivo for its inhibitory activity at 8 hr against dogs after oral administration of 10 mg/Kg dose to evaluate bioavailability; settings: Canis lupus familiaris
# Canis familiaris [41] = test: Tested ex vivo for its inhibitory activity at 3 hr against dogs after oral administration of 1 mg/Kg dose to evaluate bioavailability; settings: Canis lupus familiaris
structure (smiles),measurement,setting,value
CCOc1ccc(CCNC(=O)[C@H](CC(=O)O)NC(=O)CCCOc2ccc(C(=N)N)cc2)cc1,pIC50,Homo sapiens,6.47
COc1ccc(CCNC(=O)[C@H](CC(=O)O)NC(=O)CCCOc2ccc(C(=N)N)cc2)cc1,Remains,Rattus norvegicus [1],100%
same,Remains,Rattus norvegicus [2],105.7%
same,Remains,Rattus norvegicus [3],100.5%
same,pIC50,Homo sapiens,6.36
CC(C)[C@H](NC(=O)[C@H](CC(=O)O)NC(=O)CCCOc1ccc(C(=N)N)cc1)C(=O)O,Remains,Rattus norvegicus [1],100%
same,inhibition in vivo at 32 mg/kg,Canis familiaris [4],29%
same,inhibition in vivo at 3.2 mg/kg,Canis familiaris [5],19%
same,inhibition in vivo at 20 mg/kg,Rattus norvegicus [6],33%
same,Remains,Rattus norvegicus [7],63.8%
same,inhibition in vivo at 1 mg/kg,Cavia porcellus [8],34%
same,inhibition in vivo at 32 mg/kg,Canis familiaris [9],58%
same,inhibition in vivo at 3.2 mg/kg,Canis familiaris [10],30%
same,Remains,Rattus norvegicus [11],100%
same,inhibition in vivo at 3.2 mg/kg,Canis familiaris [12],10%
same,Remains,Rattus norvegicus [2],25.6%
same,inhibition in vivo at 32 mg/kg,Canis familiaris [13],18%
same,Remains,Rattus norvegicus [14],45.1%
same,inhibition in vivo at 10 mg/kg,Rattus norvegicus [15],18%
same,inhibition in vivo at 3.2 mg/kg,Cavia porcellus [16],64%
same,pIC50,Canis familiaris [17],6.42
same,inhibition in vivo at 3.2 mg/kg,Cavia porcellus [18],19%
same,inhibition in vivo at 10 mg/kg,Rattus norvegicus [19],24%
same,Remains,Rattus norvegicus [3],61.3%
same,pIC50,Homo sapiens,7.00
same,inhibition in vivo at 3.2 mg/kg,Cavia porcellus [20],100%
same,inhibition in vivo at 10 mg/kg,Rattus norvegicus [21],4%
same,inhibition in vivo at 20 mg/kg,Rattus norvegicus [22],20%
same,Remains,Rattus norvegicus [23],19.2%
same,inhibition in vivo at 20 mg/kg,Rattus norvegicus [24],45%
same,inhibition in vivo at 0.32 mg/kg,Cavia porcellus [25],70%
same,inhibition in vivo at 1 mg/kg,Cavia porcellus [26],99%
CC(C)CNC(=O)[C@H](CC(=O)O)NC(=O)CCCOc1ccc(C(=N)N)cc1,Remains,Rattus norvegicus [1],100%
same,Remains,Rattus norvegicus [2],83.6%
same,Remains,Rattus norvegicus [3],80.4%
same,pIC50,Homo sapiens,5.92
same,Remains,Rattus norvegicus [23],86.2%
CC(C)[C@H](NC(=O)[C@H](CC(=O)O)NC(=O)CCCOc1ccc(C(=N)N)cc1)C(=O)N1CCOCC1,Ratio,[27],1.8
same,inhibition in vivo at 3.2 mg/kg,Canis familiaris [5],53%
same,inhibition in vivo at 3.2 mg/kg,Rattus norvegicus [28],95%
same,inhibition in vivo at 10 mg/kg,Canis familiaris [29],75%
same,inhibition in vivo at 3.2 mg/kg,Canis familiaris [12],45%
same,inhibition in vivo at 10 mg/kg,Canis familiaris [30],96%
same,inhibition in vivo at 3.2 mg/kg,Rattus norvegicus [31],95%
same,pIC50,Canis familiaris [17],6.85
same,pIC50,Homo sapiens,7.10
same,inhibition in vivo at 3.2 mg/kg,Canis familiaris [32],20%
same,inhibition in vivo at 10 mg/kg,Canis familiaris [33],59%
same,inhibition in vivo at 3.2 mg/kg,Rattus norvegicus [34],97%
CCN(CC)C(=O)[C@@H](NC(=O)[C@H](CC(=O)O)NC(=O)CCCOc1ccc(C(=N)N)cc1)C(C)C,pIC50,Homo sapiens,6.60
COc1ccc(CCNC(=O)[C@H](CC(=O)O)NC(=O)CCCOc2ccc(C(=N)N)cc2)cc1OC,pIC50,Homo sapiens,6.27
CC(C)C(C)NC(=O)[C@H](CC(=O)O)NC(=O)CCCOc1ccc(C(=N)N)cc1 (stereo not given in full),pIC50,Homo sapiens,5.85
CC(C)[C@H](NC(=O)[C@H](CC(=O)O)NC(=O)CCCOc1ccc(C(=N)N)cc1)C(N)=O,Remains,Rattus norvegicus [1],100%
same,Remains,Rattus norvegicus [2],107.3%
same,Remains,Rattus norvegicus [3],105.6%
same,pIC50,Homo sapiens,6.17
CC(C)[C@H](NC(=O)[C@H](CC(=O)O)NC(=O)CCCOc1ccc(C(=N)N)cc1)C(=O)N1CCN(C)CC1,pIC50,Homo sapiens,6.74
CC(C)[C@H](NC(=O)[C@H](CC(=O)O)NC(=O)CCCOc1ccc(C(=N)N)cc1)C(=O)NC1CCCCC1,pIC50,Homo sapiens,6.68
CC(C)[C@H](NC(=O)[C@H](CC(=O)O)NC(=O)CCCOc1ccc(C(=N)N)cc1)C(=O)N1CCS(=O)(=O)CC1,inhibition in vivo at 1 mg/kg,Cavia porcellus [35],59%
same,inhibition in vivo at 0.32 mg/kg,Cavia porcellus [36],50%
same,Ratio,[27],3.7
same,inhibition in vivo at 0.1 mg/kg,Cavia porcellus [37],49%
same,inhibition in vivo at 3.2 mg/kg,Canis familiaris [5],85%
same,inhibition in vivo at 1 mg/kg,Cavia porcellus [8],21%
same,inhibition in vivo at 3.2 mg/kg,Rattus norvegicus [28],76%
same,inhibition in vivo at 10 mg/kg,Canis familiaris [29],80%
same,inhibition in vivo at 3.2 mg/kg,Canis familiaris [12],65%
same,inhibition in vivo at 3.2 mg/kg,Canis familiaris [38],0%
same,inhibition in vivo at 3.2 mg/kg,Rattus norvegicus [31],44%
same,pIC50,Canis familiaris [17],6.96
same,inhibition in vivo at 1 mg/kg,Canis familiaris [39],40%
same,pIC50,Homo sapiens,7.52
same,inhibition in vivo at 3.2 mg/kg,Canis familiaris [32],46%
same,inhibition in vivo at 10 mg/kg,Canis familiaris [40],45%
same,inhibition in vivo at 10 mg/kg,Canis familiaris [33],65%
same,inhibition in vivo at 1 mg/kg,Canis familiaris [41],11%
same,inhibition in vivo at 3.2 mg/kg,Rattus norvegicus [34],97%
same,inhibition in vivo at 0.32 mg/kg,Cavia porcellus [25],69%
same,inhibition in vivo at 1 mg/kg,Cavia porcellus [26],100%
CC(C)Oc1ccc(CCNC(=O)[C@H](CC(=O)O)NC(=O)CCCOc2ccc(C(=N)N)cc2)cc1,pIC50,Homo sapiens,6.43
